Test results taken from PubChem BioAssay AID298 (DTP/NCI, 2004).
Several values for one entry are separate records, joined by “and”; a condition that tells them apart may be missing. Equal values may be shown once. Results filed as inconclusive are left out.

System: MX-1 breast xenograft, intrarenal, nude mice, tumor weight
Assay: NCI In Vivo Anticancer Drug Screen. Data for tumor model Human Mammary Carcinoma MX-1 Xenograft (intrarenal inoculation) in NU/NU BALB/C (nude) mice
Settings: endpoint: mean tumor weight change, higher = larger tumour
Procedure: The antitumor activity of compounds was measured in mice bearing transplantable tumors. Survival or tumor size were measured and the results are expressed as the measurement made in the treated group (T) divided by the measurement made in the vehicle treated control group (C). The tumor model used in this assay is Human Mammary Carcinoma MX-1 Xenograft (intrarenal inoculation) in NU/NU BALB/C (nude) mice

[1] = dose: 150.0 mg/kg/injection, schedule: Q04DX003 (ip), vehicle: Klucel (hydroxypropylcellulose) (HPC)
[2] = dose: 300.0 mg/kg/injection, schedule: Q04DX003 (ip), vehicle: Klucel (hydroxypropylcellulose) (HPC)
[3] = dose: 50.0 mg/kg/injection, schedule: Q04DX003 (ip), vehicle: saline with Tween-80
[4] = dose: 100.0 mg/kg/injection, schedule: Q04DX003 (ip), vehicle: saline with Tween-80
[5] = dose: 200.0 mg/kg/injection, schedule: Q04DX003 (ip), vehicle: saline with Tween-80
[6] = dose: 150.0 mg/kg/injection, schedule: Q04DX003 (sc), vehicle: water

Compound: c1ccc2c(NCCCCCCCCNc3c4ccccc4nc4ccccc34)c3ccccc3nc2c1
- T/C (dose: 20.0 mg/kg/injection, schedule: Q01DX010 (sc), vehicle: Klucel (hydroxypropylcellulose) (HPC)): 106 % of control
- T/C (dose: 40.0 mg/kg/injection, schedule: Q01DX010 (sc), vehicle: Klucel (hydroxypropylcellulose) (HPC)): 107 % of control
- T/C (dose: 80.0 mg/kg/injection, schedule: Q01DX010 (sc), vehicle: Klucel (hydroxypropylcellulose) (HPC)): 100 % of control
- T/C (dose: 160.0 mg/kg/injection, schedule: Q01DX010 (sc), vehicle: Klucel (hydroxypropylcellulose) (HPC)): 99 % of control

Compound: O=C(O)CC(=O)O.[NH-]C1CCCCC1[NH-].[Pt+2] (stereo not given)
- T/C (dose: 10.0 mg/kg/injection, schedule: Q01DX010 (sc), vehicle: dextrose): 93 % of control
- T/C (dose: 20.0 mg/kg/injection, schedule: Q01DX010 (sc), vehicle: dextrose): 92 % of control
- T/C (dose: 30.0 mg/kg/injection, schedule: Q01DX010 (sc), vehicle: dextrose): -84 % of control
- T/C (dose: 40.0 mg/kg/injection, schedule: Q01DX010 (sc), vehicle: dextrose): 83 % of control
- T/C (dose: 60.0 mg/kg/injection, schedule: Q01DX010 (sc), vehicle: dextrose): -86 % of control
- T/C (dose: 80.0 mg/kg/injection, schedule: Q01DX010 (sc), vehicle: dextrose): 74 % of control

Compound: O=C(Oc1ccccc1)c1cc(O)c(O)c(O)c1
- T/C (dose: 150.0 mg/kg/injection, schedule: Q04DX003 (ip), vehicle: saline): 101 % of control
- T/C (dose: 300.0 mg/kg/injection, schedule: Q04DX003 (ip), vehicle: saline): 55 % of control

Compound: O=C(NC(Cc1ccc(I)cc1)C(=O)O)c1cccc(Br)c1 (stereo not given)
- T/C [1]: 57 % of control
- T/C [2]: 72 % of control
- T/C (dose: 600.0 mg/kg/injection, schedule: Q04DX003 (ip), vehicle: Klucel (hydroxypropylcellulose) (HPC)): 76 % of control

Compound: CC(CNC(=O)C12CC3CC(CC(C3)C1)C2)NC(=O)C12CC3CC(CC(C3)C1)C2 (stereo not given)
- T/C (dose: 75.0 mg/kg/injection, schedule: Q04DX003 (ip), vehicle: DMSO): 82 % of control
- T/C (dose: 150.0 mg/kg/injection, schedule: Q04DX003 (ip), vehicle: DMSO): 95 % of control
- T/C (dose: 300.0 mg/kg/injection, schedule: Q04DX003 (ip), vehicle: DMSO): 106 % of control
- T/C (dose: 600.0 mg/kg/injection, schedule: Q04DX003 (ip), vehicle: DMSO): 105 % of control

Compound: O=c1c(O)c(O)c1=O.[NH2-].[NH2-].[NH2-].[NH2-].[NH2-].[Ru+5]
- T/C (dose: 12.5 mg/kg/injection, schedule: Q04DX003 (ip), vehicle: suspension in saline): 98 % of control
- T/C (dose: 25.0 mg/kg/injection, schedule: Q04DX003 (ip), vehicle: suspension in saline): 74 % of control
- T/C (dose: 50.0 mg/kg/injection, schedule: Q04DX003 (ip), vehicle: suspension in saline): 60 % of control

Compound: COC(=O)[C@@]12OC[C@]34[C@H]([C@@H](O)[C@@H]1O)[C@@]1(C)CC(=O)C(OC(=O)CC(=O)OC5=C(C)[C@@H]6C[C@H]7OC(=O)[C@H](OC(=O)/C=C(\C)C(C)C)[C@H]8[C@]9(C(=O)OC)OC[C@]78[C@H]([C@@H](O)[C@@H]9O)[C@@]6(C)CC5=O)=C(C)[C@@H]1C[C@H]3OC(=O)[C@H](OC(=O)/C=C(\C)C(C)C)[C@@H]24
- T/C (dose: 3.12 mg/kg/injection, schedule: Q04DX003 (ip), vehicle: saline + Tween-80 + alcohol): 86 % of control
- T/C (dose: 6.25 mg/kg/injection, schedule: Q04DX003 (ip), vehicle: saline + Tween-80 + alcohol): 63 % of control

Compound: C/C(=N\NC(=S)N1CC2CCC(CC2)C1)c1cccc(C)n1
- T/C (dose: 12.5 mg/kg/injection, schedule: Q04DX003 (ip), vehicle: saline with Tween-80): 77 % of control
- T/C (dose: 25.0 mg/kg/injection, schedule: Q04DX003 (ip), vehicle: saline with Tween-80): 62 % of control
- T/C [3]: 78 % of control

Compound: COc1cc(C2=NCCc3cc4c(cc32)OCO4)cc(OC)c1OC
- T/C (dose: 75.0 mg/kg/injection, schedule: Q04DX003 (ip), vehicle: saline + alcohol): 116 % of control
- T/C (dose: 150.0 mg/kg/injection, schedule: Q04DX003 (ip), vehicle: saline + alcohol): 99 % of control

Compound: COc1ccc2c(c1)n([O-])c1ccccc1[n+]2=O
- T/C [3]: 40 % of control
- T/C [4]: 48 % of control
- T/C [5]: 36 % of control

Compound: NC(=O)C1C=CN(Cc2ccccc2)C=C1
- T/C [4]: 62 % of control
- T/C [5]: 64 % of control

Compound: OCCN1CCN(CC/C=C2/c3ccccc3Sc3ccc(C(F)(F)F)cc32)CC1
- T/C (dose: 30.0 mg/kg/injection, schedule: Q04DX003 (sc), vehicle: saline): 65 % of control
- T/C (dose: 60.0 mg/kg/injection, schedule: Q04DX003 (sc), vehicle: saline): 43 % of control and 44 % of control
- T/C (dose: 120.0 mg/kg/injection, schedule: Q04DX003 (sc), vehicle: saline): 11 % of control and 33 % of control

Compound: ClCC[N+]12CC[N+](CCCl)(CC1)C2
- T/C (dose: 75.0 mg/kg/injection, schedule: Q04DX003 (sc), vehicle: water): 34 % of control
- T/C (dose: 100.0 mg/kg/injection, schedule: Q01DX010 (sc), vehicle: saline with Tween-80): 23 % of control and 27 % of control
- T/C [6]: 18 % of control
- T/C (dose: 200.0 mg/kg/injection, schedule: Q01DX010 (sc), vehicle: saline with Tween-80): 16 % of control and 19 % of control
- T/C (dose: 300.0 mg/kg/injection, schedule: Q04DX003 (sc), vehicle: water): 3 % of control

Compound: N#Cc1ccc(NN=O)nc1
- T/C (dose: 12.5 mg/kg/injection, schedule: Q04DX003 (ip), vehicle: other): 95 % of control
- T/C (dose: 12.5 mg/kg/injection, schedule: Q04DX003 (ip), vehicle: water): 38 % of control and 41 % of control
- T/C (dose: 25.0 mg/kg/injection, schedule: Q04DX003 (ip), vehicle: other): 20 % of control
- T/C (dose: 25.0 mg/kg/injection, schedule: Q04DX003 (ip), vehicle: water): 7 % of control and 9 % of control
- T/C (dose: 50.0 mg/kg/injection, schedule: Q04DX003 (ip), vehicle: other): 4 % of control
- T/C (dose: 50.0 mg/kg/injection, schedule: Q04DX003 (ip), vehicle: water): 1 % of control and 12 % of control
- T/C (dose: 100.0 mg/kg/injection, schedule: Q04DX003 (ip), vehicle: other): -92 % of control
- T/C (dose: 100.0 mg/kg/injection, schedule: Q04DX003 (ip), vehicle: water): -86 % of control

Compound: O=C(/C=C/c1cccnc1)/C=C/c1cccnc1
- T/C (dose: 50.0 mg/kg/injection, schedule: Q04DX003 (ip), vehicle: Klucel (hydroxypropylcellulose) (HPC)): 67 % of control

Compound: COC12[C@@H]3N[C@@H]3CN1C1=C(C(=O)C(NCCSSCCNC3=C(C)C(=O)C4=C(C3=O)C(COC(N)=O)[C@]3(OC)C5N[C@@H]5CN43)=C(C)C1=O)[C@@H]2COC(N)=O (stereo not given in full)
- T/C (dose: 3.12 mg/kg/injection, schedule: Q04DX003 (ip), vehicle: DMSO): 24 % of control
- T/C (dose: 6.25 mg/kg/injection, schedule: Q04DX003 (ip), vehicle: DMSO): -41 % of control

Compound: O=C(CN1CCOCC1)Nc1nc(-c2ccc(Cl)cc2)cs1
- T/C (dose: 150.0 mg/kg/injection, schedule: Q04DX003 (ip), vehicle: other): 96 % of control
- T/C (dose: 600.0 mg/kg/injection, schedule: Q04DX003 (ip), vehicle: other): 71 % of control
- T/C (dose: 1200.0 mg/kg/injection, schedule: Q04DX003 (ip), vehicle: other): 60 % of control

Compound: CC1=C[P+](c2ccccc2)(c2ccccc2)C=C(c2ccccc2)O1
- T/C (dose: 0.75 mg/kg/injection, schedule: Q04DX003 (ip), vehicle: saline): 124 % of control

Compound: NC(CNC(=O)CBr)C(=O)O (stereo not given)
- T/C (dose: 37.5 mg/kg/injection, schedule: Q04DX003 (sc), vehicle: water): 82 % of control
- T/C [6]: 54 % of control

Compound: O=c1[nH]cnc2c1cnn2CN1CCOCC1
- T/C [1]: 96 % of control
- T/C [2]: 65 % of control

Compound: N#CC(C#N)=C/C=C/c1cccc([N+](=O)[O-])c1
- T/C (dose: 200.0 mg/kg/injection, schedule: Q01DX010 (sc), vehicle: Klucel (hydroxypropylcellulose) (HPC)): 176 % of control
- T/C (dose: 400.0 mg/kg/injection, schedule: Q01DX010 (sc), vehicle: Klucel (hydroxypropylcellulose) (HPC)): 214 % of control

Compound: Cc1cc(SCC(=O)c2ccc(Br)cc2)cc(C)[o+]1
- T/C (dose: 50.0 mg/kg/injection, schedule: Q01DX010 (sc), vehicle: saline): 91 % of control
- T/C (dose: 100.0 mg/kg/injection, schedule: Q01DX010 (sc), vehicle: saline): 124 % of control
- T/C (dose: 200.0 mg/kg/injection, schedule: Q01DX010 (sc), vehicle: saline): 71 % of control
- T/C (dose: 400.0 mg/kg/injection, schedule: Q01DX010 (sc), vehicle: saline): 102 % of control

Compound: O=S(=O)(CCl)OCCCl
- T/C (dose: 25.0 mg/kg/injection, schedule: Q04DX003 (sc), vehicle: saline with Tween-80): 90 % of control
- T/C (dose: 50.0 mg/kg/injection, schedule: Q04DX003 (sc), vehicle: saline with Tween-80): 113 % of control
- T/C (dose: 100.0 mg/kg/injection, schedule: Q04DX003 (sc), vehicle: saline with Tween-80): 95 % of control
